Laboratory results from ChEMBL document CHEMBL1909046, “DrugMatrix in vitro pharmacology data”.

Key:
[1] = DRUGMATRIX: Nicotinic Acetylcholine radioligand binding (ligand: [125I] Epibatidine); format: cell membranes, Membrane; settings: imr-32; Not Active = under 50% inhibition at 10 µM
[2] = DRUGMATRIX: beta-Lactamase enzyme inhibition (substrate: Nitrocefin); design: species or system Bacillus cereus; settings: Not Active = under 50% inhibition at 10 µM
[3] = target: Sodium-dependent dopamine transporter (Homo sapiens, UniProt Q01959); assay: DRUGMATRIX: Dopamine Transporter radioligand binding (ligand: [125I] RTI-55); format: cell membranes, CHO-K1, Membrane; settings: cho-k1; Not Active = under 50% inhibition at 10 µM
Melanocortin receptor 3 = Melanocortin receptor 3 (Homo sapiens, UniProt P41968); format: cell membranes, Membrane; settings: hek293; also: in other assays of this panel Not Active means under 50% inhibition at 10 µM
[4] = target: T1, Vasoactive intestinal polypeptide receptor 1 (Homo sapiens, UniProt P32241); format: cell membranes, Membrane; settings: ht-29; also: in other assays of this panel Not Active means under 50% inhibition at 10 µM
T1 sequence (P32241 whole entry): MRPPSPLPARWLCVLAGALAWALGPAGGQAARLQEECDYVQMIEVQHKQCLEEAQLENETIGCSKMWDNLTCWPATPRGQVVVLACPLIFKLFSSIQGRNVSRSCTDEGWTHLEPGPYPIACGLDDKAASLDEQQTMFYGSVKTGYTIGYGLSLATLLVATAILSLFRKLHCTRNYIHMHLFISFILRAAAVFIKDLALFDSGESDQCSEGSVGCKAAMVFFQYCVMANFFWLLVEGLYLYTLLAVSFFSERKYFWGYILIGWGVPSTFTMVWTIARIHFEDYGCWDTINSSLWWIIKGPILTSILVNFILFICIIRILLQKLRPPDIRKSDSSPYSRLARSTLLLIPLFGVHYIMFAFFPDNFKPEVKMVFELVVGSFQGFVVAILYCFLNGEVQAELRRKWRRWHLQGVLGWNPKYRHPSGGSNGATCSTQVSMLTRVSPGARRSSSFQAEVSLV

Adenosine receptor A3 = target: T2, Adenosine receptor A3 (Homo sapiens, UniProt P0DMS8); format: cell membranes, CHO-K1, Membrane; settings: cho-k1;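 also: radioligand binding assay with AB-MECA serving as the labeled ligand; in other assays of this panel Not Active means under 50% inhibition at 10 µM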
T2 sequence (P0DMS8 whole entry): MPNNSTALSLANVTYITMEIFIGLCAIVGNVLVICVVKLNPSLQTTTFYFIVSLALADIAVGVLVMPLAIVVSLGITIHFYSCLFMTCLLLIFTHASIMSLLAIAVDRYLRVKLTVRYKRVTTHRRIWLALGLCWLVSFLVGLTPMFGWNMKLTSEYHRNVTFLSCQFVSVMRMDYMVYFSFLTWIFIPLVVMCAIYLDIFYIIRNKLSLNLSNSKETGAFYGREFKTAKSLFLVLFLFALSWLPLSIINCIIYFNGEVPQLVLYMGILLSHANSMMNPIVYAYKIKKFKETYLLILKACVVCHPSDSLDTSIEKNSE

[5] = DRUGMATRIX: Calcium Channel Type L, Phenylalkylamine radioligand binding (ligand: [3H] (-)-Desmethoxyverapamil (D-888)); format: cell membranes, Rattus norvegicus, Wistar, Brain, Membrane; settings: Not Active = under 50% inhibition at 10 µM

Sodium-dependent dopamine transporter, sequence (Q01959 whole entry): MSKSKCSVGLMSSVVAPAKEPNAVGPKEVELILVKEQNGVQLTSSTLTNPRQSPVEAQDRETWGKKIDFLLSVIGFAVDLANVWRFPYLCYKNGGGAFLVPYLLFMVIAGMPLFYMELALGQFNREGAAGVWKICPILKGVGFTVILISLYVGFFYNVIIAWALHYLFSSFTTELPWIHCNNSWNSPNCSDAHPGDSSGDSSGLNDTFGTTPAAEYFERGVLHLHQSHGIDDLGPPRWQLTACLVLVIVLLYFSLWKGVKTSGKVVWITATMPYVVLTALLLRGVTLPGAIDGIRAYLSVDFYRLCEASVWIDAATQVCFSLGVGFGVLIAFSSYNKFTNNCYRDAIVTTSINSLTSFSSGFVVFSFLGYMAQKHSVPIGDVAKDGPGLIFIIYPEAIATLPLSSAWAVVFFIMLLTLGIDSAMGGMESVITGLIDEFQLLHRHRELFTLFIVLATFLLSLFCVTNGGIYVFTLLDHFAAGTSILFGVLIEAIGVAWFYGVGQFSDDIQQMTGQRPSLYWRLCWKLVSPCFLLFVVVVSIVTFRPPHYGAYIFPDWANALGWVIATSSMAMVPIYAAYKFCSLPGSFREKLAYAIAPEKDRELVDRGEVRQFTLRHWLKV
Melanocortin receptor 3, sequence (P41968 whole entry): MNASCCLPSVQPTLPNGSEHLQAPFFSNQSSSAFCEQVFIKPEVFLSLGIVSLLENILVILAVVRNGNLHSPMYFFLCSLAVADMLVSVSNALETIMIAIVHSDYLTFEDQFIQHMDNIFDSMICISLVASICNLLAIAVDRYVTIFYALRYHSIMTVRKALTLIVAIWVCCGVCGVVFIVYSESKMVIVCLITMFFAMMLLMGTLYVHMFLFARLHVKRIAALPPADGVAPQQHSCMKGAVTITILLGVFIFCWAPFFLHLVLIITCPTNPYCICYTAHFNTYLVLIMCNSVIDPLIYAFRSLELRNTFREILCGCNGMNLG

O=C1CC2(CCCC2)CC(=O)N1CCCCN1CCN(c2ncccn2)CC1 [BUSPIRONE]
Not Active: IC50 [1] | Ki [1] | IC50 [2] | Ki [2] | IC50 [3] | IC50 (Melanocortin receptor 3) | IC50 [4] | IC50 (Adenosine receptor A3) | IC50 [5] | Ki [5]

C[C@@]12C(=O)OC(=O)[C@]1(C)[C@H]1CC[C@@H]2O1 [CANTHARIDIN]
Not Active: IC50 [1] | Ki [1] | IC50 [2] | Ki [2] | IC50 [3] | IC50 (Melanocortin receptor 3) | IC50 [4] | IC50 (Adenosine receptor A3) | IC50 [5] | Ki [5]

O=NN(CCCl)C(=O)NCCCl [CARMUSTINE]
Not Active: IC50 [1] | Ki [1] | IC50 [2] | Ki [2] | IC50 [3] | IC50 (Melanocortin receptor 3) | IC50 [4] | IC50 (Adenosine receptor A3) | IC50 [5] | Ki [5]

CC1=C(C(=O)O)N2C(=O)[C@@H](NC(=O)[C@H](N)c3ccccc3)[C@H]2SC1 [CEPHALEXIN ANHYDROUS]
Not Active: IC50 [1] | Ki [1] | IC50 [2] | Ki [2] | IC50 [3] | IC50 (Melanocortin receptor 3) | IC50 [4] | IC50 (Adenosine receptor A3) | IC50 [5] | Ki [5]

O=C(N[C@H](CO)[C@H](O)c1ccc([N+](=O)[O-])cc1)C(Cl)Cl [CHLORAMPHENICOL]
Not Active: IC50 [1] | Ki [1] | IC50 [2] | Ki [2] | IC50 [3] | IC50 (Melanocortin receptor 3) | IC50 [4] | IC50 (Adenosine receptor A3) | IC50 [5] | Ki [5]

ClC(Cl)Cl [CHLOROFORM]
Not Active: IC50 [1] | Ki [1] | IC50 [2] | Ki [2] | IC50 [3] | IC50 (Melanocortin receptor 3) | IC50 [4] | IC50 (Adenosine receptor A3) | IC50 [5] | Ki [5]

C=C1CC[C@H](O)C/C1=C/C=C1\CCC[C@]2(C)[C@@H]([C@H](C)CCCC(C)C)CC[C@@H]12 [CHOLECALCIFEROL]
Not Active: IC50 [1] | Ki [1] | IC50 [2] | Ki [2] | IC50 [3] | IC50 (Melanocortin receptor 3) | IC50 [4] | IC50 (Adenosine receptor A3) | IC50 [5] | Ki [5]

C[N+](C)(C)CCO.[Cl-] [CHOLINE CHLORIDE]
Not Active: IC50 [1] | Ki [1] | IC50 [2] | Ki [2] | IC50 [3] | IC50 (Melanocortin receptor 3) | IC50 [4] | IC50 (Adenosine receptor A3) | IC50 [5] | Ki [5]

CCOC(=O)C(C)(C)Oc1ccc(Cl)cc1 [CLOFIBRATE]
Not Active: IC50 [1] | Ki [1] | IC50 [2] | Ki [2] | IC50 [3] | IC50 (Melanocortin receptor 3) | IC50 [4] | IC50 (Adenosine receptor A3) | IC50 [5] | Ki [5]

CC(=O)OCC(=O)[C@@]1(O)CC[C@H]2[C@@H]3CCC4=CC(=O)CC[C@]4(C)[C@H]3C(=O)C[C@@]21C [CORTISONE ACETATE]
Not Active: IC50 [1] | Ki [1] | IC50 [2] | Ki [2] | IC50 [3] | IC50 (Melanocortin receptor 3) | IC50 [4] | IC50 (Adenosine receptor A3) | IC50 [5] | Ki [5]

O=c1ccc2ccccc2o1 [COUMARIN]
Not Active: IC50 [1] | Ki [1] | IC50 [2] | Ki [2] | IC50 [3] | IC50 (Melanocortin receptor 3) | IC50 [4] | IC50 (Adenosine receptor A3) | IC50 [5] | Ki [5]

C[C@@H]1C[C@@H]([C@H](O)CC2CC(=O)NC(=O)C2)C(=O)[C@@H](C)C1 [CYCLOHEXIMIDE]
Not Active: IC50 [1] | Ki [1] | IC50 [2] | Ki [2] | IC50 [3] | IC50 (Melanocortin receptor 3) | IC50 [4] | IC50 (Adenosine receptor A3) | IC50 [5] | Ki [5]

C/C=C/C[C@@H](C)[C@@H](O)[C@H]1C(=O)N[C@@H](CC)C(=O)N(C)CC(=O)N(C)[C@@H](CC(C)C)C(=O)N[C@@H](C(C)C)C(=O)N(C)[C@@H](CC(C)C)C(=O)N[C@@H](C)C(=O)N[C@H](C)C(=O)N(C)[C@@H](CC(C)C)C(=O)N(C)[C@@H](CC(C)C)C(=O)N(C)[C@@H](C(C)C)C(=O)N1C [CYCLOSPORINE]
Not Active: IC50 [1] | Ki [1] | IC50 [2] | Ki [2] | IC50 [3] | IC50 (Melanocortin receptor 3) | IC50 [4] | IC50 (Adenosine receptor A3) | IC50 [5] | Ki [5]

CN(C)/N=N/c1[nH]cnc1C(N)=O [DACARBAZINE]
Not Active: IC50 [1] | Ki [1] | IC50 [2] | Ki [2] | IC50 [3] | IC50 (Melanocortin receptor 3) | IC50 [4] | IC50 (Adenosine receptor A3) | IC50 [5] | Ki [5]

COc1ccc2c(c1)[C@]13CCCC[C@@H]1[C@H](C2)N(C)CC3 [DEXTROMETHORPHAN]
Not Active: IC50 [1] | Ki [1] | IC50 [2] | Ki [2] | IC50 [3] | IC50 (Melanocortin receptor 3) | IC50 [4] | IC50 (Adenosine receptor A3) | IC50 [5] | Ki [5]

CC(=O)Nc1c(I)c(NC(C)=O)c(I)c(C(=O)O)c1I [DIATRIZOIC ACID]
Not Active: IC50 [1] | Ki [1] | IC50 [2] | Ki [2] | IC50 [3] | IC50 (Melanocortin receptor 3) | IC50 [4] | IC50 (Adenosine receptor A3) | IC50 [5] | Ki [5]

COP(=O)(OC)OC=C(Cl)Cl [DICHLORVOS]
Not Active: IC50 [1] | Ki [1] | IC50 [2] | Ki [2] | IC50 [3] | IC50 (Melanocortin receptor 3) | IC50 [4] | IC50 (Adenosine receptor A3) | IC50 [5] | Ki [5]
